Experimental data taken from US10407428B2, “Spiro-isoquinoline-1,4′-piperidine compounds having multimodal activity against pain” (ESTEVE PHARMACEUTICALS, S.A., priority 2014, dated 2019).

System: human σ1 receptor and human μ-opioid receptor
Experiment: Human σ1 receptor radioligand assay and human μ-opioid receptor radioligand assay (μ and σ1 dual binding)
Design: key to μ and σ1 dual binding: +: Both Ki-μ and Ki-σ1>=500 nM; ++: One Ki<500 nM while the other Ki is >=500 nM; +++: Both Ki-μ and Ki-σ1<500 nM; ++++: Both Ki-μ and Ki-σ1<100 nM
Settings: not given

Structure (SMILES) | μ and σ1 dual binding | Ki [nM]
COCCN(C(=O)CN1CCC2(CC1)c1ccccc1CCN2C)C(C)C [Example 108, N-isopropyl-N-(2-methoxyethyl)-2-(2-methyl-3,4-dihydro-2H-spiro[isoquinoline-1,4′-piperidine]-1′-yl)acetamide] | ++ | –
CCC(CC)N(CC)C(=O)CN1CCC2(CC1)c1ccccc1CCN2C [Example 109, N-ethyl-2-(2-methyl-3,4-dihydro-2H-spiro[isoquinoline-1,4′-piperidine]-1′-yl)-N-(pentan-3-yl)acetamide] | ++ | –
CCC(CC)N(C)C(=O)CN1CCC2(CC1)c1ccccc1CCN2C [Example 111, N-methyl-2-(2-methyl-3,4-dihydro-2H-spiro[isoquinoline-1,4′-piperidine]-1′-yl)-N-(pentan-3-yl)acetamide] | – | < 500
CN(CC1CC1)C(=O)CN1CCC2(CC1)c1ccccc1CCN2C [Example 112, N-(cyclopropylmethyl)-N-methyl-2-(2-methyl-3,4-dihydro-2H-spiro[isoquinoline-1,4′-piperidine]-1′-yl)acetamide] | – | < 500
CN1CCc2ccccc2C12CCN(CC(O)c1ccncc1F)CC2 (stereo not drawn) [Example 113, 1-(3-fluoropyridin-4-yl)-2-(2-methyl-3,4-dihydro-2H-spiro[isoquinoline-1,4′-piperidine]-1′-yl)ethanol] | – | < 500
CC1CCN(C(=O)CN2CCC3(CC2)c2ccccc2CCN3C)CC1 [Example 114, 2-(2-Methyl-3,4-dihydro-2H-spiro[isoquinoline-1,4′-piperidine]-1′-yl)-1-(4-methylpiperidin-1-yl)ethanone] | – | < 500
CN(Cc1ccccn1)C(=O)CN1CCC2(CC1)c1ccccc1CCN2C [Example 116, N-methyl-2-(2-methyl-3,4-dihydro-2H-spiro[isoquinoline-1,4′-piperidine]-1′-yl)-N-(pyridin-2-ylmethyl)acetamide] | ++ | –
CN1CCc2ccccc2C12CCN(CCc1cccc(N)c1)CC2 [Example 117, 3-[2-(2-Methyl-3,4-dihydro-2H-spiro[isoquinoline-1,4′-piperidin]-1′-yl)-ethyl]-phenylamine] | – | < 100
CN1CCc2ccccc2C12CCN(CCc1cccc(NS(C)(=O)=O)c1)CC2 [Example 118, N-(3-(2-(2-Methyl-3,4-dihydro-2H-spiro[isoquinoline-1,4′-piperidin]-1′-yl)ethyl)phenyl)methanesulfonamide] | – | < 100
CC(=O)Nc1cccc(CCN2CCC3(CC2)c2ccccc2CCN3C)c1 [Example 119, N-{3-[2-(2-Methyl-3,4-dihydro-2H-spiro[isoquinoline-1,4′-piperidin]-1′-yl)-ethyl]-phenyl}-acetamide] | – | < 500
CN1CCc2ccccc2C12CCN(CC(O)c1ccccc1)CC2 (stereo not drawn) [Example 120, 2-(2-Methyl-3,4-dihydro-2H-spiro[isoquinoline-1,4′-piperidin]-1′-yl)-1-phenyl-ethanol] | – | < 500
CN1CCc2ccccc2C12CCN(CCc1ccncc1)CC2 [Example 121, 2-Methyl-1′-(2-(pyridin-4-yl)ethyl)-3,4-dihydro-2H-spiro[isoquinoline-1,4′-piperidine]] | – | < 500
COCCN1CCc2ccccc2C12CCN(CCc1ccccc1)CC2 [Example 122, 2-(2-Methoxyethyl)-1′-phenethyl-3,4-dihydro-2H-spiro[isoquinoline-1,4′-piperidine]] | – | < 500
OCCN1CCc2ccccc2C12CCN(CCc1ccccc1)CC2 [Example 123, 2-(1′-Phenethyl-3,4-dihydro-2H-spiro[isoquinoline-1,4′-piperidin]-2-yl)ethanol] | – | < 100
OCCN1CCc2ccccc2C12CCN(CCc1cccnc1)CC2 [Example 125, 2-[1′-(2-Pyridin-3-yl-ethyl)-3,4-dihydro-spiro[isoquinoline-1,4′-piperidin]-2-yl]-ethanol] | – | < 500
O=C(CN1CCC2(CC1)c1ccccc1CCN2CCO)N1CCCCC1 [Example 126, 2-(2-(2-Hydroxyethyl)-3,4-dihydro-2H-spiro[isoquinoline-1,4′-piperidine]-1′-yl)-1-(piperidin-1-yl)ethanone] | ++ | –
OCCN1CCc2ccccc2C12CCN(CCc1cncc(F)c1)CC2 [Example 127, 2-(1′-(2-(5-fluoropyridin-3-yl)ethyl)-3,4-dihydro-2H-spiro[isoquinoline-1,4′-piperidin]-2-yl)etanol] | – | < 500

Structure (SMILES) | μ and σ1 dual binding | Ki [nM]
OCCN1CCc2ccccc2C12CCN(CCc1cncc(C(F)(F)F)c1)CC2 [Example 128, 2-(1′-(2-(5-(trifluoromethyl)pyridin-3-yl)ethyl)-3,4-dihydro-2H-spiro[isoquinoline-1,4′-piperidine]-2-yl)ethanol] | – | < 500
OCCN1CCc2ccccc2C12CCN(CCc1ccncc1)CC2 [Example 129, 2-(1′-(2-(pyridin-4-yl)ethyl)-3,4-dihydro-2H-spiro[isoquinoline-1,4′-piperidine]-2-yl)ethanol] | ++ | –
OCCN1CCc2ccccc2C12CCN(CCc1ccncc1F)CC2 [Example 130, 2-(1′-(2-(3-Fluoropyridin-4-yl)ethyl)-3,4-dihydro-2H-spiro[isoquinoline-1,4′-piperidine]-2-yl)ethanol] | – | < 500
CN1CCc2cc(O)ccc2C12CCN(CCc1ccccc1)CC2 [Example 131, 2-Methyl-1′-phenethyl-3,4-dihydro-2H-spiro[isoquinoline-1,4′-piperidin]-6-ol] | – | < 100
FC(F)(F)CN1CCc2ccccc2C12CCN(CCc1ccccc1)CC2 [Example 133, 1′-Phenethyl-2-(2,2,2-trifluoroethyl)-3,4-dihydro-2H-spiro[isoquinoline-1,4′-piperidine]] | – | < 100
O=C(CN1CCC2(CC1)c1ccccc1CCN2CC(F)(F)F)N1CCOCC1 [Example 134, 1-Morpholino-2-(2-(2,2,2-trifluoroethyl)-3,4-dihydro-2H-spiro[isoquinoline-1,4′-piperidine]-1′-yl)ethanone] | ++ | –
O=C(CN1CCC2(CC1)c1ccccc1CCN2CC(F)(F)F)N1CCCCC1 [Example 135, 1-(piperidin-1-yl)-2-(2-(2,2,2-trifluoroethyl)-3,4-dihydro-2H-spiro[isoquinoline-1,4′-piperidine]-1′-yl)ethanone] | ++ | –
FC(F)(F)CN1CCc2ccccc2C12CCN(CCc1ccncc1)CC2 [Example 136, 1′-(2-(pyridin-4-yl)ethyl)-2-(2,2,2-trifluoroethyl)-3,4-dihydro-2H-spiro[isoquinoline-1,4′-piperidine]] | – | < 500
FC(F)(F)CN1CCc2ccccc2C12CCN(CCc1cccnc1)CC2 [Example 137, 1′-(2-(pyridin-3-yl)ethyl)-2-(2,2,2-trifluoroethyl)-3,4-dihydro-2H-spiro[isoquinoline-1,4′-piperidine]] | – | < 500
CN1Cc2ccccc2C12CCN(CCc1ccccc1)CC2 [Example 140, 2-Methyl-1′-phenethylspiro[isoindoline-1,4′-piperidine]] | – | < 500
CN1Cc2ccccc2C12CCN(CC1CCOCC1)CC2 [Example 141, 2-Methyl-1′-((tetrahydro-2H-pyran-4-yl)methyl)spiro[isoindoline-1,4′-piperidine]] | ++ | –
CN1CCc2ccccc2C12CCN(C[C@H](O)c1ccncc1F)CC2 [Example 142, (R)-1-(3-fluoropyridin-4-yl)-2-(2-methyl-3,4-dihydro-2H-spiro[isoquinoline-1,4′-piperidine]-1′-yl)ethanol] | – | < 500
CN1CCc2ccccc2C12CCN(C[C@@H](O)c1ccncc1F)CC2 [Example 143, (S)-1-(3-fluoropyridin-4-yl)-2-(2-methyl-3,4-dihydro-2H-spiro[isoquinoline-1,4′-piperidine]-1′-yl)ethanol] | – | < 500
CCN(C(=O)CN1CCC2(CC1)c1ccccc1CCN2CC)C(C)C [Example 144, N-ethyl-2-(2-ethyl-3,4-dihydro-2H-spiro[isoquinoline-1,4′-piperidine]-1′-yl)-N-isopropylacetamide] | – | < 500
CCN1CCc2ccccc2C12CCN(CC(=O)N1CCC(F)(F)CC1)CC2 [Example 145, 1-(4,4-difluoropiperidin-1-yl)-2-(2-ethyl-3,4-dihydro-2H-spiro[isoquinoline-1,4′-piperidine]-1′-yl)ethanone] | – | < 500
CCN1CCc2ccccc2C12CCN(CC(O)c1ccncc1)CC2 (stereo not drawn) [Example 146, 2-(2-ethyl-3,4-dihydro-2H-spiro[isoquinoline-1,4′-piperidine]-1′-yl)-1-(pyridin-4-yl)ethanol] | ++ | –
CCN1CCc2ccccc2C12CCN(CC(=O)N1CCOCC1)CC2 [Example 147, 2-(2-ethyl-3,4-dihydro-2H-spiro[isoquinoline-1,4′-piperidine]-1′-yl)-1-morpholinoethanone] | – | < 500

Same assay, conditions: combined class for Ki-μ ([3H]-DAMGO, CHO-K1 membranes) and Ki-σ1 ([3H](+)-pentazocine, HEK-293 membranes)

Structure (SMILES) | Ki [nM]
CC(C)CN(C(=O)CN1CCC2(CC1)c1ccccc1CCN2C)C(C)C [Example 110, N-isobutyl-N-isopropyl-2-(2-methyl-3,4-dihydro-2H-spiro[isoquinoline-1,4′-piperidine]-1′-yl)acetamide] | ≥ 500
C[C@@H]1CN(C(=O)CN2CCC3(CC2)c2ccccc2CCN3C)C[C@H](C)O1 [Example 115, 1-((2S,6R)-2,6-dimethylmorpholino)-2-(2-methyl-3,4-dihydro-2H-spiro[isoquinoline-1,4′-piperidine]-1′-yl)ethanone] | ≥ 500
COCCN1CCc2ccccc2C12CCN(CCc1cccnc1)CC2 [Example 124, 2-(2-Methoxyethyl)-1′-(2-(pyridin-3-yl)ethyl)-3,4-dihydro-2H-spiro[isoquinoline-1,4′-piperidine]] | ≥ 500
O=C(N1CCc2ccccc2C12CCN(CCc1ccccc1)CC2)C(F)(F)F [Example 132, 2,2,2-Trifluoro-1-(1′-phenethyl-3,4-dihydro-2H-spiro[isoquinoline-1,4′-piperidine]-2-yl)ethanone] | ≥ 500
CN1CC(C)(C)c2ccccc2C12CCN(CC(=O)N1CCCCC1)CC2 [Example 138, 1-(Piperidin-1-yl)-2-(2,4,4-trimethyl-3,4-dihydro-2H-spiro[isoquinoline-1,4′-piperidine]-1′-yl)ethanone] | ≥ 500
